# How the values were obtained:
# [1] = tested on: transplanted murine mammary adenocarcinoma; details: Chemotherapy 1977; 23:44-49; cited from earlier work
# [2] = tested on: normal and hypophysectomized animals; details: Science 1976, 192:372-374, cited from earlier work
# retinal cells = details: through reactive oxygen species generation and increased expression of heme oxygenase; J Cell Physiol 2006; cited from earlier work
# [3] = tested on: transplanted malignant neoplasms; details: animals with transplanted malignant neoplasms; U.S. Pat. No. 4,255,443; cited from earlier work
# Toxicity in human trials = details: 7.5 mg/70 kg/day to 300 mg/70 kg/day
# Toxicity in animal tests = details: 7.5 mg/70 kg/day to 300 mg/70 kg/day
# [4] = Carcinogenesis 1987; 8:1559-1562; Proc Soc Exp Biol Med 1989; 191:346-351; cited from earlier work
# [5] = tested on: rats treated with parenteral homocysteine thiolactone; details: Kazimir et al 2002; cited from earlier work
# transplanted neoplasms = details: cited from earlier work; for growth of transplanted neoplasms in animals: U.S. Pat. No. 4,383,994
compound,measurement,setting,value
CCCCC/C=C/C/C=C/C/C=C/C/C=C/CCCC(=O)NC1CCSC1=O (stereo not shown) [Arachidonoyl homocysteine thiolactone amide],growth of transplanted murine mammary adenocarcinoma,[1],decrease the growth
N[C@@H](CCS(=O)(=O)O)C(=O)O [Homocysteic acid],"growth and release of insulin-like growth factor, IGF-1",[2]; hypophysectomized animals treated with thyroxine,"promotes growth and release of insulin-like growth factor, IGF-1"
same,growth in normal animals,[2]; normal animals,promotes growth
"CC1=C(/C=C/C(C)=C/C=C/C(C)=C/C(=O)Nc2ccc(O)cc2)C(C)(C)CCC1 [fenretinide, N-(4-hydroxyphenyl)-retinamide]",apoptosis in retinal cells,retinal cells,induces apoptosis
N[C@H]1CCSC1=O.[O-][Cl+3]([O-])([O-])O [homocysteine thiolactone perchlorate],necrosis within malignant neoplasms,[3],increased necrosis within malignant neoplasms
CC1=C(/C=C/C(C)=C/C=C/C(C)=C/CO)C(C)(C)CCC1 [retinol],"evidence of toxicity, such as weight loss, nausea, impairment of liver function, headache, or skin lesions",Toxicity in human trials,no evidence of toxicity
same,"evidence of toxicity, such as weight loss, nausea, impairment of liver function, headache, or skin lesions",Toxicity in animal tests,no evidence of toxicity
"CC1=C(/C=C/C(C)=C/C=C/C(C)=C/C(=O)NC2CCSC2=O)C(C)(C)CCC1 (stereo not shown) [thioretinamide, N-homocysteine thiolactonyl retinamide]",anti-carcinogenic and anti-neoplastic activities,[4],have anti-carcinogenic and anti-neoplastic activities
same,anti-atherogenic activity,[5],have anti-atherogenic activity
N-homocysteine thiolactonyl retinamido cobalamin [thioretinaco],anti-carcinogenic and anti-neoplastic activities,[4],have anti-carcinogenic and anti-neoplastic activities
same,anti-atherogenic activity,[5],have anti-atherogenic activity
N-maleamide homocysteine thiolactone amide,growth of transplanted neoplasms in animals,transplanted neoplasms,suppress the growth
same,effect of encapsulation within liposomes on anti-neoplastic activity,"transplanted neoplasms; encapsulated within liposomes, Proc Soc Exp Biol Med 1985, 180:57-61",greatly enhances its anti-neoplastic activity
N-maleyl homocysteine thiolactone amide,growth of transplanted neoplasms in animals,transplanted neoplasms,suppress the growth
pyridoxal homocysteine thiolactone enamine,growth of transplanted murine mammary adenocarcinoma,[1],decrease the growth
rhodium trichloride oxalyl homocysteine thiolactone amide,growth of transplanted neoplasms in animals,transplanted neoplasms,suppress the growth

# Reference: US9682131B2, “Compositions and method for utilization of thioretinamide in therapy of degenerative diseases of aging” (priority 2011, dated 2017)
